Laboratory results reported in patent US8765773B2, “Substituted hydroxamic acids and uses thereof” (Millennium Pharmaceuticals, Inc., priority 2010, dated 2014).

Each compound was assayed against T1, purified human HDAC6 (Homo sapiens, UniProt Q9UBN7) (assay: HDAC6 Enzyme Assay). Conditions: compound concentration 0.37 μM, read-out: Percent Inhibition.
T1 construct: purchased BPS Bioscience 5006
T1 sequence (Q9UBN7 1-1215): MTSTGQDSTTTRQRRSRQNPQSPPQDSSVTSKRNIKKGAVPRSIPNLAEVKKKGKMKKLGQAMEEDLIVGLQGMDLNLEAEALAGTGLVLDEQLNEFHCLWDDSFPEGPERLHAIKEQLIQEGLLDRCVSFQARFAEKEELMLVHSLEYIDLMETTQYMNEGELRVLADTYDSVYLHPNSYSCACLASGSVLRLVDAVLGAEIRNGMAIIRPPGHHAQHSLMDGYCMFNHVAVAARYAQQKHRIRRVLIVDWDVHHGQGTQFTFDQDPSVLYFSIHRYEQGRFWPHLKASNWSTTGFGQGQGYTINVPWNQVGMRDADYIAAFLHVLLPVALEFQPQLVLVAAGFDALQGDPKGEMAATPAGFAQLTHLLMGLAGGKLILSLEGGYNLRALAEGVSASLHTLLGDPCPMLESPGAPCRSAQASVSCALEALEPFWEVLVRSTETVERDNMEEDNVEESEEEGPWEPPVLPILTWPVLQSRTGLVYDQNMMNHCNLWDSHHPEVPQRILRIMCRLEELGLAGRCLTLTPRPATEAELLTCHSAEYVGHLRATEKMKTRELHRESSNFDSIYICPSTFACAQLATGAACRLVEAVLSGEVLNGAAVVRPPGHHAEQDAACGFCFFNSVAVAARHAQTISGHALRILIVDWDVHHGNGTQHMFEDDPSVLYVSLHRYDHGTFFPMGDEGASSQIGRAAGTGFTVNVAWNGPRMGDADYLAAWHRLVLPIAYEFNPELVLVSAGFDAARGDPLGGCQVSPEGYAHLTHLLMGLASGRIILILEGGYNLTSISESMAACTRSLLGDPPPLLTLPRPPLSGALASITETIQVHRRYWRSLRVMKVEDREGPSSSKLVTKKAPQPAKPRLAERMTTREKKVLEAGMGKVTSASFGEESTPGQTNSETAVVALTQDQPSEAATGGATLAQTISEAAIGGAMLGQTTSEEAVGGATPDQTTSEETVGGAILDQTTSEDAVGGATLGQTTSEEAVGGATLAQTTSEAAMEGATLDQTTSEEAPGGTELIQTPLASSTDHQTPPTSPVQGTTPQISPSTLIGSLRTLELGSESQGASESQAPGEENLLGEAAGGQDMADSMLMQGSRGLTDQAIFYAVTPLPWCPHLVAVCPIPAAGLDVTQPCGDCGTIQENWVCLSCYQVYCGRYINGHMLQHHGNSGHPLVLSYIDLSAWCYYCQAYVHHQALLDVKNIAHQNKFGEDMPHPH
Type: biochemical
How it was run: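 Readout is AMC fluorescence (Ex 340 nm, Em 460 nm) after trypsin cleavage of the deacetylated Ac-Arg-Gly-Lys(Ac)-AMC product. Reaction: purified human HDAC6, compound or vehicle, 1 hour, 30° C, quenched by trichostatin A. Single-concentration percent inhibition or IC50 calculated versus DMSO-treated samples.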

Row | Compound | inhibition at 0.37 µM [%]
1 | CN(C)S(=O)(=O)c1cccc(-c2cccc(Cn3cnc4ccc(C(=O)NO)cc4c3=O)c2)c1 [Compound I-244, 3-({3′-[(dimethylamino)sulfonyl]biphenyl-3-yl}methyl)-N-hydroxy-4-oxo-3,4-dihydroquinazoline-6-carboxamide] | 89.4
2 | CC(C)(C)OC(=O)NCCCn1ccc2ccc(C(=O)NO)cc2c1=O [Compound I-245, tert-butyl {3-[7-[(hydroxyamino)carbonyl]-1-oxoisoquinolin-2(1H)-yl]propyl}carbamate] | 94.5
3 | O=C(NO)c1ccc2ccn(-c3ccc(Cl)cc3)c(=O)c2c1 [Compound I-247, 2-(4-chlorophenyl)-N-hydroxy-1-oxo-1,2-dihydroisoquinoline-7-carboxamide] | 93
4 | O=C(NO)c1ccc2ncn(Cc3cccc(-c4ccc(S(=O)(=O)N5CCCCC5)cc4)c3)c(=O)c2c1 [Compound I-254, N-hydroxy-4-oxo-3-{[4′-(piperidin-1-ylsulfonyl)biphenyl-3-yl]methyl}-3,4-dihydroquinazoline-6-carboxamide] | 94
5 | O=C(NO)c1ccc2ncn(Cc3cccc(-c4cc5ccccc5s4)c3)c(=O)c2c1 [Compound I-268, 3-[3-(1-benzothien-2-yl)benzyl]-N-hydroxy-4-oxo-3,4-dihydroquinazoline-6-carboxamide] | 93.2

Same assay, conditions: compound concentration 0.412 μM, read-out: Percent Inhibition

Row | Compound | inhibition at 0.412 µM [%]
6 | CC(C)(C)OC(=O)N1CCC(NC(=O)c2nc3cc(C(=O)NO)ccc3c(=O)[nH]2)CC1 [Compound I-241, tert-butyl 4-[({7-[(hydroxyamino)carbonyl]-4-oxo-3,4-dihydroquinazolin-2-yl}carbonyl)amino]piperidine-1-carboxylate] | 29.8
7 | Cn1cnc2cc(C(=O)NO)ccc2c1=O [Compound I-242, N-hydroxy-3-methyl-4-oxo-3,4-dihydroquinazoline-7-carboxamide] | 68.8
8 | Cn1c(NCCc2ccc(Cl)cc2)nc2ccc(C(=O)NO)cc2c1=O [Compound I-243, 2-{[2-(4-chlorophenyl)ethyl]amino}-N-hydroxy-3-methyl-4-oxo-3,4-dihydroquinazoline-6-carboxamide] | 60.8
9 | O=C(NO)c1ccc2ccn(CCOc3ccc(Cl)cc3)c(=O)c2c1 [Compound I-246, 2-[2-(4-chlorophenoxy)ethyl]-N-hydroxy-1-oxo-1,2-dihydroisoquinoline-7-carboxamide] | 97.7
10 | COc1ccccc1OCc1nc2cc(C(=O)NO)ccc2c(=O)[nH]1 [Compound I-248, N-hydroxy-2-[(2-methoxyphenoxy)methyl]-4-oxo-3,4-dihydroquinazoline-7-carboxamide] | 90
11 | CS(=O)(=O)c1ccccc1OCc1nc2cc(C(=O)NO)ccc2c(=O)[nH]1 [Compound I-249, N-hydroxy-2-{[2-(methylsulfonyl)phenoxy]methyl}-4-oxo-3,4-dihydroquinazoline-7-carboxamide] | 56.5
12 | NC(=O)CCn1ccc2ccc(C(=O)NO)cc2c1=O [Compound I-250, 2-(3-amino-3-oxopropyl)-N-hydroxy-1-oxo-1,2-dihydroisoquinoline-7-carboxamide] | 77
13 | O=C(NO)c1ccc2ccn(CCc3cccc4ccccc34)c(=O)c2c1 [Compound I-251, N-hydroxy-2-[2-(1-naphthyl)ethyl]-1-oxo-1,2-dihydroisoquinoline-7-carboxamide] | 96.6
14 | O=C(NO)c1ccc2ccn(CCOc3ccccc3)c(=O)c2c1 [Compound I-252, N-hydroxy-1-oxo-2-(2-phenoxyethyl)-1,2-dihydroisoquinoline-7-carboxamide] | 97.6
15 | O=C(NO)c1ccc2ccn(CCN(Cc3cccc(C(F)(F)F)c3)Cc3cccc(C(F)(F)F)c3)c(=O)c2c1 [Compound I-253, 2-(2-{bis[3-(trifluoromethyl)benzyl]amino}ethyl)-N-hydroxy-1-oxo-1,2-dihydroisoquinoline-7-carboxamide] | 57.5
16 | CCC(C)Cn1ccc2ccc(C(=O)NO)cc2c1=O (stereo not shown) [Compound I-255, N-hydroxy-2-(2-methylbutyl)-1-oxo-1,2-dihydroisoquinoline-7-carboxamide] | 85.6
17 | CC(C)n1cnc2cc(C(=O)NO)ccc2c1=O [Compound I-256, N-hydroxy-3-isopropyl-4-oxo-3,4-dihydroquinazoline-7-carboxamide] | 72
18 | COc1ccc(OCCn2ccc3ccc(C(=O)NO)cc3c2=O)cc1 [Compound I-257, N-hydroxy-2-[2-(4-methoxyphenoxy)ethyl]-1-oxo-1,2-dihydroisoquinoline-7-carboxamide] | 96.8
19 | O=C(NO)c1ccc2ccn(CCOc3cccc(OCc4ccccc4)c3)c(=O)c2c1 [Compound I-258, 2-{2-[3-(benzyloxy)phenoxy]ethyl}-N-hydroxy-1-oxo-1,2-dihydroisoquinoline-7-carboxamide] | 93.9
20 | Cc1onc(-c2ccccc2)c1Cn1ccc2ccc(C(=O)NO)cc2c1=O [Compound I-259, N-hydroxy-2-[(5-methyl-3-phenylisoxazol-4-yl)methyl]-1-oxo-1,2-dihydroisoquinoline-7-carboxamide] | 96.1
21 | O=C(NO)c1ccc2c(=O)[nH]c(-c3cccc(C(F)(F)F)c3)nc2c1 [Compound I-260, N-hydroxy-4-oxo-2-[3-(trifluoromethyl)phenyl]-3,4-dihydroquinazoline-7-carboxamide] | 73.2
22 | O=C(NO)c1ccc2ccn(CC3CC3)c(=O)c2c1 [Compound I-261, 2-(cyclopropylmethyl)-N-hydroxy-1-oxo-1,2-dihydroisoquinoline-7-carboxamide] | 87.5
23 | O=C(NO)c1ccc2c(=O)n(-c3ccc(Cl)cc3)c(NCc3ccc(Cl)cc3)nc2c1 [Compound I-262, 2-[(4-chlorobenzyl)amino]-3-(4-chlorophenyl)-N-hydroxy-4-oxo-3,4-dihydroquinazoline-7-carboxamide] | 68.2
24 | O=C(NO)c1ccc2c(=O)n(CCc3ccccn3)c(-c3ccccc3)nc2c1 [Compound I-263, N-hydroxy-4-oxo-2-phenyl-3-(2-pyridin-2-ylethyl)-3,4-dihydroquinazoline-7-carboxamide] | 91.1
25 | O=C(NO)c1ccc2[nH]c(=O)n(Cc3ccccc3)c(=O)c2c1 [Compound I-264, 3-benzyl-N-hydroxy-2,4-dioxo-1,2,3,4-tetrahydroquinazoline-6-carboxamide] | 93
26 | Cc1ccc(OCc2nc3cc(C(=O)NO)ccc3c(=O)[nH]2)cc1 [Compound I-265, N-hydroxy-2-[(4-methylphenoxy)methyl]-4-oxo-3,4-dihydroquinazoline-7-carboxamide] | 81.3
27 | CC(C)(C)OC(=O)Nc1cccc(Cn2ccc3ccc(C(=O)NO)cc3c2=O)c1 [Compound I-266, tert-butyl (3-{[7-[(hydroxyamino)carbonyl]-1-oxoisoquinolin-2(1H)-yl]methyl}phenyl)carbamate] | 87.9
28 | CC(C)(C)c1ccc(Cn2ccc3ccc(C(=O)NO)cc3c2=O)cc1 [Compound I-267, 2-(4-tert-butylbenzyl)-N-hydroxy-1-oxo-1,2-dihydroisoquinoline-7-carboxamide] | 94.8
29 | O=C(NO)c1ccc2ccn(CCCn3cccc3)c(=O)c2c1 [Compound I-269, N-hydroxy-1-oxo-2-[3-(1H-pyrrol-1-yl)propyl]-1,2-dihydroisoquinoline-7-carboxamide] | 94.5
30 | O=C(NO)c1ccc2ccn(CCOc3ccc(OCc4ccccc4)cc3)c(=O)c2c1 [Compound I-270, 2-{2-[4-(benzyloxy)phenoxy]ethyl}-N-hydroxy-1-oxo-1,2-dihydroisoquinoline-7-carboxamide] | 83.4
31 | O=C(NO)c1ccc2ccn(CCOc3ccc(-n4ccnc4)cc3)c(=O)c2c1 [Compound I-271, N-hydroxy-2-{2-[4-(1H-imidazol-1-yl)phenoxy]ethyl}-1-oxo-1,2-dihydroisoquinoline-7-carboxamide] | 96.9
